Results on 16 compounds are retold here after ChEMBL document CHEMBL1127982, “Synthesis, chemical half-life and decomposition of new N3-(substituted) derivatives of CCNU” (Bioorg Med Chem Lett, 1994).

By logD is commonly meant the decadic logarithm of the distribution of all forms, ionised or not, between an organic phase and buffer at a given pH. A lower logD goes with a more hydrophilic compound. As usually defined, the half-life is how long it takes for the measured level to halve.

The nature of the first data set: Partition coefficient (logD7.4). The note with it: octanol/water, pH 7.4.
`CC(C)N(C(=O)NCCCl)C1CCCCC1` showed a logD of 2.36.

In turn, `C=CCN(C(=O)NCCCl)C1CCCCC1` registered a logD of 1.48. Same read-out and setting: the result for `CC(O)CN(C(=O)NCCCl)C1CCCCC1` (centres undefined) reads 0.37; that for `CC(C)(C)N(C(=O)NCCCl)C1CCCCC1`, 3.03. On the same count and under the same terms, the result for `CC(C)CN(C(=O)NCCCl)C1CCCCC1` reads 1.93. The same measure, in the same setting: the result for `CN(C(=O)NCCCl)C1CCCCC1` reads 1.41. For the compound `CC(C)(C)N(C(=O)N(CCCl)N=O)C1CCCCC1`, the logD was 2.46. With `CC(C)N(C(=O)N(CCCl)N=O)C1CCCCC1`, the logD was determined as 1.78.

Compound `O=NN(CCCl)C(=O)NC1CCCCC1` [LOMUSTINE] returned a pH-dependent lipophilicity (logD) of 2.83.

The next data set can be described thus: Chemical half-life was determined; not active. The format is ADME.
Conditions: not given; call rule not given here
Consider `CC(C)(C)N(C(=O)N(CCCl)N=O)C1CCCCC1`, for which the T1/2 result is recorded as “Not Active”.

A further data set can be described thus: Chemical half-life was determined.
Conditions: not given
`CC(O)CN(C(=O)N(CCCl)N=O)C1CCCCC1` (centres undefined) gave a half-life of 43.3 h. Turning to `O=NN(CCCl)C(=O)N(C1CCCCC1)C1CCCCC1`, the half-life was 62.6 h. Regarding `CCN(C(=O)N(CCCl)N=O)C1CCCCC1`, the half-life is 132 h.

Compound `C#CCN(C(=O)N(CCCl)N=O)C1CCCCC1` showed a half-life of 76.8 h. Regarding `CCCN(C(=O)N(CCCl)N=O)C1CCCCC1`, the half-life was 69.8 h. Same read-out and setting: the result for `CN(C(=O)N(CCCl)N=O)C1CCCCC1` reads 47.8 h. Same read-out and setting: as for `CC(C)N(C(=O)N(CCCl)N=O)C1CCCCC1`, the figure is 32.9 h; as for `O=NN(CCCl)C(=O)NC1CCCCC1` [LOMUSTINE], 2.1 h.

The next data set is described as follows: HChemical half-life was determined, not active. In kind it is ADME.
Conditions: not given
Take `O=NN(CCCl)C(=O)N(CCCO)C1CCCCC1`: the T1/2 entry was “Not Active”.
